Results from the supplement of paper PMC13380429.

Legend:
Details in all cases: 72 h
Caco-2 [1] = experiment: cell viability relative to DMSO; higher = less toxic
Calu-3 [2] = experiment: as above
HepG2 [3] = experiment: as above
U2OS [4] = experiment: as above
Vero E6 [5] = experiment: as above
Caco-2 [6] = experiment: relative viability EC50 (midpoint between 100% and the lowest measured viability); higher = less toxic
Calu-3 [7] = experiment: as above
HepG2 [8] = experiment: as above
U2OS [9] = experiment: as above
Vero E6 [10] = experiment: as above
Caco-2 [11] = experiment: drug sensitivity score (DSS) for viability; higher = more toxic; extreme values may be limits of the assay
Calu-3 [12] = experiment: as above
HepG2 [13] = experiment: as above
U2OS [14] = experiment: as above
Vero E6 [15] = experiment: as above

SMILES	cell viability (Caco-2 [1]; 1 nM) [%]	cell viability (Caco-2 [1]; 10 nM) [%]	cell viability (Caco-2 [1]; 100 nM) [%]	cell viability (Caco-2 [1]; 1000 nM) [%]	cell viability (Caco-2 [1]; 10000 nM) [%]	cell viability (Calu-3 [2]; 1 nM) [%]	cell viability (Calu-3 [2]; 10 nM) [%]	cell viability (Calu-3 [2]; 100 nM) [%]	cell viability (Calu-3 [2]; 1000 nM) [%]	cell viability (Calu-3 [2]; 10000 nM) [%]	cell viability (HepG2 [3]; 1 nM) [%]	cell viability (HepG2 [3]; 10 nM) [%]	cell viability (HepG2 [3]; 100 nM) [%]	cell viability (HepG2 [3]; 1000 nM) [%]	cell viability (HepG2 [3]; 10000 nM) [%]	cell viability (U2OS [4]; 1 nM) [%]	cell viability (U2OS [4]; 10 nM) [%]	cell viability (U2OS [4]; 100 nM) [%]	cell viability (U2OS [4]; 1000 nM) [%]	cell viability (U2OS [4]; 10000 nM) [%]	cell viability (Vero E6 [5]; 1 nM) [%]	cell viability (Vero E6 [5]; 10 nM) [%]	cell viability (Vero E6 [5]; 100 nM) [%]	cell viability (Vero E6 [5]; 1000 nM) [%]	cell viability (Vero E6 [5]; 10000 nM) [%]	relative viability EC50 (Caco-2 [6]) [µM]	relative viability EC50 (Calu-3 [7]) [µM]	relative viability EC50 (HepG2 [8]) [µM]	relative viability EC50 (U2OS [9]) [µM]	relative viability EC50 (Vero E6 [10]) [µM]	drug sensitivity score (Caco-2 [11])	drug sensitivity score (Calu-3 [12])	drug sensitivity score (HepG2 [13])	drug sensitivity score (U2OS [14])	drug sensitivity score (Vero E6 [15])
O=C(Nc1ccccc1Br)N[C@@H]1CCN(c2ccc(C(F)(F)F)cn2)C1	86.7	97.2	97.9	98	86.9	96.1	98.5	97.1	97.4	96.8	103	106	103	97.8	99.2	98.9	102	97.4	104	94.7	108	100	103	99.8	96.9	> 10	> 10	> 10	> 10	> 10	0	0	0	0	0
O=C(C[C@H]1CC(c2ccc(F)cc2F)=NO1)N1CCOCC1 (racemic) [CPSI-1306-(+/-)]	93.7	105	107	90.9	104	–	–	–	–	–	101	107	96.4	95.6	104	95.7	99.3	99.1	102	104	95.6	97.4	93.6	95	106	> 10	–	> 10	> 10	> 10	0	–	0	0	0
CCCCCCCCCCCCCCCCCCCCCC(=O)O [AGP-103]	104	90.4	96.5	106	99.9	–	–	–	–	–	97.6	94.8	98.5	95.5	92.7	99.8	93.9	98.3	101	102	105	106	100	97.9	99.1	> 10	–	> 10	> 10	> 10	0	–	0	0	0
COc1cc2c(cc1NS(=O)(=O)c1ccc(Br)cc1C)n(C)c(=O)n2C [OF-1]	94	95.3	102	86.2	78.2	–	–	–	–	–	96.5	101	97.1	87.8	42.3	99.1	94.6	103	93	88.3	105	102	96.4	99.7	88	> 10	–	1.69	> 10	> 10	2.1	–	5.1	0.3	0.1
CN[C@@H]1[C@@H](O[C@H]2O[C@H](CO)[C@@H](N)[C@H](O)[C@H]2O)O[C@H]2C[C@@H](N)[C@@H](O[C@H]3[C@H](O)[C@@H](O)[C@H](N)C[C@@H]3N)O[C@@H]2[C@@H]1O [apramycin]	98	89	104	104	92.9	97.8	99.6	100	91.5	74.8	106	98.1	107	99.3	97.5	105	100	92.8	104	99.9	102	95.3	93.2	99.9	102	> 10	–	> 10	> 10	> 10	0	2.1	0	0	0
CC(C)(c1ccc(O)cc1)c1ccc(O)cc1 [bisphenol-A]	92.2	111	102	97.3	88.8	–	–	–	–	–	98.7	94.4	103	94.6	106	101	109	99.6	107	102	107	105	99.2	98	88.6	> 10	–	> 10	> 10	> 10	0.1	–	0	0	0.1
